# Source: EP0390515A1, “Novel adenine derivatives and their use as agents for increasing crop yields” (MITSUBISHI GAS CHEMICAL COMPANY, INC., priority 1989, dated 1990)
# Tests used:
# [1] = test system: Rice seeds (var.: Nankin No. 11) leaf section; experiment: Assay of cytokinin activity by measurement of chlorophyll content (senescence retardation of rice leaf sections); type: cell-based, Rice (var.: Nankin No. 11); conditions: dark, 30°C, 3 days
# Procedure: Rice seeds (var.: Nankin No. 11) were sown in soil mixed with fertilizer in a seed box and raised for about one month in a greenhouse (25°C in the daytime and 15°C in the night).
# A leaf section 1 cm long was cut off from the center of the fourth leaf of the seedlings at the sixth leaf stage. Five leaf sections as one group which had been cut off were floated on the surface of an aqueous solution (2 ml) of the candidate compound or benzyl adenine at a given concentration contained in a glass tubular bottle of 32 mm in inner diameter. This was left to stand in the dark at 30°C for 3 days. The leaf sections were taken out and put in a test tube containing 10 ml of 80% ethanol and the glass tube was immersed in a water bath of 80°C for 20 minutes to extract chlorophyll. After cooling, 80% ethanol was added to make up to 10 ml and absorbance at 665 nm was measured. For the untreated group, water was used in place of the candidate solution in all examples.
# Senescence retardation was determined according to the degree of chlorophyll retention, that is, calculated using the following formula (in all examples). [formula] • (A) : Absorbance of treated group after 3 days • (B) : Absorbance of untreated group after 3 days • (C) : Absorbance of leaves before treatment.
# leaf section of wheat = experiment: Activity on leaf section of wheat (senescence retardation, chlorophyll retention); type: cell-based, wheat [var.: Yukichabo (Triticum astivum)]; conditions: wheat leaf sections, 25°C, 4 days, dark
# Procedure: Seeds of wheat [var.: Yukichabo (Triticum astivum)] were sown in vermiculite packed in a seed-bed box and were sprouted by keeping them at 28°C for 2 days in the dark. The seedlings wera grown at 25°C for 5 days under irradiation with light of 1500 Lx. When they grew to a length of 12 - 13 cm, a portion having a length of 1 cm was cut off from the leaf in the region 2 - 5 cm from the tip of the first true leaf. Five of the leaf sections as one group were floated with the upper surface of the leaf being uppermost on the surface of aqueous solution (2 ml) of a given concentration of the candidate compound or benzyladenine contained in a glass tubular bottle 32 mm in inner diameter. These were placed at 25°C for 4 days in the dark and thereafter, these leaf sections were put in a test tube containing 10 ml of 80% ethanol and this test tube was immersed in a water bath at 80°C for 20 minutes to extract chlorophyll. After cooling, 80% ethanol was added to make up to 10 ml and absorbance at 665 nm was measured. Senescence retardation was determined according to the degree of retention of chlorophyll. For the untreated group, water was used in place of the aqueous solution of candidate compound.
# [2] = test system: pig weed (Amaranthus caudatus); experiment: Assay of cytokinin activity to promote synthesis of betacyanin by pig weed cotyledon sections; type: cell-based; conditions: 27°C, 20 hours, dark
# Procedure: Two sheets of filter paper were put double in a plastic container (19 x 28 cm) and were wetted with 60 ml of distilled water. Seeds of pig weed were sown on the filter papers and were germinated by keeping them in the dark at 27°C for 3 days. Seedlings of uniform size were chosen and were cut at the upper part of the hypocotyl and the seed coats were removed. This cotyledon with hypocotyl of 3-4 mm in length was used for assay.
# Two sheets of filter paper were put double in a glass tubular bottle 32 mm in inner diameter and 1 ml of 0.0065M potassium phosphate buffer solution (pH: 6.3) containing a given concentration of the candidate compound, benzyladenine or zeatin and 0.5 g/l of tyrosine was added therein and ten of the above cotyledon sections were arranged therein and kept at 27°C for 20 hours in the dark. These ten cotyledon sections were put in a test tube containing 3 ml of distilled water and betacyanin was extracted by repeating thrice freezing and thawing. Absorbance of the solution was measured and the amount of the dye was calculated by the difference between the absorbance at 542 nm and at 620 nm. For the untreated group, 0.0065M potassium phosphate buffer solution (pH: 6.3) containing 0.5 g/l of tyrosine was used.
# [3] = test system: glycine (soybean) hypocotyl section; experiment: Assay for cytokinin activity according to glycine (soybean) hypocotyl section growth test (callus weight); type: cell-based, Soybean (var.: Enrei); conditions: Miller's medium with 2,4-D, dark, 30°C, about one month
# Procedure: Soybean seeds (var.: Enrei) were disinfected with antiformin containing 0.7% effective chlorine for 4 minutes and washed thrice with sterilized water.
# Agar (15 ml, 1.6%) was put in a test tube 2.5 cm in diameter. A groove was cut by forceps on the surface of the agar and two soybean seeds treated as above were placed in this groove and kept in the dark at 30°C for 5 days.
# In a glass tubular bottle 26 mm in inner diameter was put Miller's medium, to which a given concentration of the candidate compound, benzyladenine or zeatin and […] of 2,4-D were added. The central portion of hypocotyl budding out from the above seeds was cut off to give a section 1 mm thick. Four of the sections as one group were transplanted to the Miller's medium. This was placed in the dark at 30°C for about one month and then the weight of callus formed was measured. For untreated group, the Miller's medium containing 9 mg/l of 2,4-D was used.
# leaf of wheat = experiment: Absorption from the surface of the leaf of wheat and translocation (length of green portion); type: cell-based, wheat [var.: Yukichabo (Triticum astivum)]; conditions: for The length of the green portion (mm) (average in 10 leaves): 10 µl in 0.2% Tween 80 on centre of wheat leaf section, 25°C, 5 days, dark
# Procedure: In the same manner as in the above Example 8 test (1), wheat seedlings were grown to a height of 12 - 13 cm and a portion was cut off from tle region 4 cm from the tip of the first true leaf and this leaf section was used for this test.
# The bottom of a Petri dish 9 cm in diameter was covered with a sheet of circular filter paper which was wetted with 2.5 ml of distilled water. A slide glass was put thereon and ten of the leaf sections were arranged on this slide glass with the upper surface of the leaf being uppermost. On the center of the leaf sections was put 10 µl of the solution prepared by dissolving the candidate compound or benzyladenine in a 0.2% aqueous solution of Tween 80 at a given concentration. The Petri dish was covered and left at 25°C for 5 days in the dark. In the part where the candidate solution was absorbed and translocated around the position on which the solution was put, the length of the portion where chlorophyll was retained, namely, the length of the green portion was measured. […]
smiles,measurement,setting,value
"c1ccc(CNc2ncnc3nc[nH]c23)cc1 [Benzyladenine, 6-benzylaminopurine, reference compound]",The senescence retardation (%),[1]; 0.001 mg/l,17%
same,The senescence retardation (%),[1]; 0.01 mg/l,64%
same,The senescence retardation (%),[1]; 0.1 mg/l,93%
same,The senescence retardation (%),[1]; 1.0 mg/l,93%
same,The senescence retardation (%),leaf section of wheat; 0.0001 mg/l,7%
same,The senescence retardation (%),leaf section of wheat; 0.001 mg/l,15%
same,The senescence retardation (%),leaf section of wheat; 0.01 mg/l,50%
same,The senescence retardation (%),leaf section of wheat; 0.1 mg/l,55%
same,The senescence retardation (%),leaf section of wheat; 1.0 mg/l,74%
same,The senescence retardation (%),leaf section of wheat; 10 mg/l,75%
same,The amount of betacyanin produced (difference between absorbance at 542 nm and 620 nm),[2]; 0.001 mg/l,0.038
same,The amount of betacyanin produced (difference between absorbance at 542 nm and 620 nm),[2]; 0.01 mg/l,0.076
same,The amount of betacyanin produced (difference between absorbance at 542 nm and 620 nm),[2]; 0.1 mg/l,0.192
same,The amount of betacyanin produced (difference between absorbance at 542 nm and 620 nm),[2]; 1.0 mg/l,0.260
same,The weight of soybean callus formed,[3]; 0.001 mg/l,76 mg
same,The weight of soybean callus formed,[3]; 0.01 mg/l,836 mg
same,The weight of soybean callus formed,[3]; 0.1 mg/l,674 mg
same,The length of the green portion (mm) (average in 10 leaves),leaf of wheat; 0.1 mg/l,9.6 mm
same,The length of the green portion (mm) (average in 10 leaves),leaf of wheat; 1.0 mg/l,14.2 mm
same,The length of the green portion (mm) (average in 10 leaves),leaf of wheat; 10 mg/l,16.9 mm
"CON(C)CCNc1ncnc2nc[nH]c12 [MAED, N⁶-[2-(N-methoxy-N-methylamino)ethyl]adenine]",The senescence retardation (%),[1]; 0.001 mg/l,14%
same,The senescence retardation (%),[1]; 0.01 mg/l,60%
same,The senescence retardation (%),[1]; 0.1 mg/l,100%
same,The senescence retardation (%),[1]; 1.0 mg/l,95%
same,The senescence retardation (%),leaf section of wheat; 0.0001 mg/l,4%
same,The senescence retardation (%),leaf section of wheat; 0.001 mg/l,14%
same,The senescence retardation (%),leaf section of wheat; 0.01 mg/l,43%
same,The senescence retardation (%),leaf section of wheat; 0.1 mg/l,56%
same,The senescence retardation (%),leaf section of wheat; 1.0 mg/l,58%
same,The senescence retardation (%),leaf section of wheat; 10 mg/l,76%
same,The amount of betacyanin produced (difference between absorbance at 542 nm and 620 nm),[2]; 0.001 mg/l,0.040
same,The amount of betacyanin produced (difference between absorbance at 542 nm and 620 nm),[2]; 0.01 mg/l,0.058
same,The amount of betacyanin produced (difference between absorbance at 542 nm and 620 nm),[2]; 0.1 mg/l,0.121
same,The amount of betacyanin produced (difference between absorbance at 542 nm and 620 nm),[2]; 1.0 mg/l,0.214
same,The weight of soybean callus formed,[3]; 0.001 mg/l,97 mg
same,The weight of soybean callus formed,[3]; 0.01 mg/l,182 mg
same,The weight of soybean callus formed,[3]; 0.1 mg/l,654 mg
same,The weight of soybean callus formed,[3]; 1.0 mg/l,823 mg
same,The weight of soybean callus formed,[3]; 10 mg/l,705 mg
same,The length of the green portion (mm) (average in 10 leaves),leaf of wheat; 0.1 mg/l,9.9 mm
same,The length of the green portion (mm) (average in 10 leaves),leaf of wheat; 1.0 mg/l,19.8 mm
same,The length of the green portion (mm) (average in 10 leaves),leaf of wheat; 10 mg/l,28.8 mm
same,green portion compared with benzyladenine (absorbability and translocation),"leaf of wheat; at the same concentration, result in words",expanded the green portion in more widely than benzyladenine
